Target: T1, BTK (Homo sapiens, UniProt Q06187)
T1 construct: endogenous in cells; host or cells: Ramos (ATCC CRL-1596)
Assay: Cellular BTK HTRF Assay (BTK degradation in Ramos cells)
Type: cell-based
Conditions: four hours incubation, 37° C., BTK levels relative to DMSO-treated cells
Method: Ramos (CRL-1596) cells were obtained from American Type Culture Collection and were grown in RPMI-1640 media (ATCC, 30-2001) supplemented with 10% heat-inactivated FBS (Corning Premium Fetal Bovine Serum from Fisher, MT35015CV).
Compounds of the present invention were added to 50,000 Ramos cells in round-bottom 96 well plates with a final DMSO concentration of […] and were incubated at 37° C., 5% CO2 for four hours. BTK levels were determined using Cisbio Total-BTK HTRF ([…] Time-Resolved Fluorescence) kit (63ADK064PEG) according to manufacturer's protocol. Briefly, cells were incubated in 1× supplied lysis buffer for 30 minutes. In an opaque white low volume 96 well plate (Cisbio, 66PL96005), cell lysate was combined with two different specific BTK antibodies, one conjugated with Eu^3+-Cryptate FRET donor and one conjugated with d2 FRET acceptor. Assay controls include wells containing cell lysate with only the Eu^3+-Cryptate FRET donor antibody and wells containing both HTRF antibodies and lysis buffer without cells or control lysate provided by Cisbio. HTRF ratio was calculated as (acceptor signal at 665 nm/donor signal at 620 nm)×10^4. Background HTRF levels were determined from the control well containing the donor, but no acceptor, antibody. Background HTRF levels were subtracted from all samples. Readouts were reported as HTRF levels relative to HTRF levels of DMSO-treated cells. Four-parameter non-linear regressions were performed in GraphPad Prism 7.02 to obtain DC50 values. DC50 values are provided in Table 3, wherein A<7.5 nM, 7.5 nM≤B≤50 nM, and 50 nM<C<500 nM.

T1 sequence (Q06187 whole entry): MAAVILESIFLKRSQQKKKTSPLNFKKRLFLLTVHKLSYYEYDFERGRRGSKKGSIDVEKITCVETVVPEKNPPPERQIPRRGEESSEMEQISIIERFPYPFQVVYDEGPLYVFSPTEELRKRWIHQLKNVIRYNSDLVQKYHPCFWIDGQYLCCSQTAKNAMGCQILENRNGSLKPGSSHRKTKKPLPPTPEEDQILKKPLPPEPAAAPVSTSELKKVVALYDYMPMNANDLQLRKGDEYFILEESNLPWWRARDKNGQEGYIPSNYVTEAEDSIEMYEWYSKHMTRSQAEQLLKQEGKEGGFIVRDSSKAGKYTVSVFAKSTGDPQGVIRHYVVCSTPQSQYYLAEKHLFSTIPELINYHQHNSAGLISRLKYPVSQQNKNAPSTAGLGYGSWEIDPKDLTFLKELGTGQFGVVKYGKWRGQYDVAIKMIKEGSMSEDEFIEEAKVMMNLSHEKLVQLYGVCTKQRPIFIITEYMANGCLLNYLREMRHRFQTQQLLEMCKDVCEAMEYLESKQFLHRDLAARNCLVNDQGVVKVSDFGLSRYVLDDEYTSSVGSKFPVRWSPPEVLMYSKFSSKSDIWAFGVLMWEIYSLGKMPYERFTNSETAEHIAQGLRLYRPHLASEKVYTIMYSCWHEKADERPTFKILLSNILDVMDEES

DC50 [nM]	SMILES
50 to 500	CS(=O)(=O)c1ccc(Nc2nc(N3CCC[C@@H](NC(=O)C4CC5CCC(C4)N5C4CCN(c5ccc6c(c5)C(=O)N(C5CCC(=O)NC5=O)C6=O)CC4)C3)cnc2C(N)=O)cc1 (stereo partly drawn) [Compound 41, N-[(3R)-1-{5-carbamoyl-6-[(4-methanesulfonylphenyl)amino]pyrazin-2-yl}piperidin-3-yl]-8-{1-[2-(2,6-dioxopiperidin-3-yl)-1,3-dioxoisoindol-5-yl]piperidin-4-yl}-8-azabicyclo[3.2.1]octane-3-carboxamide]
< 7.5	Cc1cc(Nc2nc(N3CCC[C@@H](NC(=O)C4CCN(C5CCN(c6ccc7c(c6)C(=O)N(C6CCC(=O)NC6=O)C7=O)CC5)CC4)C3)cnc2C(N)=O)sn1 (stereo partly drawn) [Compound 39, N—((R)-1-(5-carbamoyl-6-((3-methylisothiazol-5-yl)amino)pyrazin-2-yl)piperidin-3-yl)-1′-(2-(2,6-dioxopiperidin-3-yl)-1,3-dioxoisoindolin-5-yl)-[1,4′-bipiperidine]-4-carboxamide]
7.5 to 50	CS(=O)(=O)c1ccc(Nc2nc(N3CCC[C@@H](NC(=O)C4CN(CC5CCN(c6ccc7c(c6)C(=O)N(C6CCC(=O)NC6=O)C7=O)CC5)C4)C3)cnc2C(N)=O)cc1 (stereo partly drawn) [Compound 30, 5-((3R)-3-(1-((1-(2-(2,6-dioxopiperidin-3-yl)-1,3-dioxoisoindolin-5-yl)piperidin-4-yl)methyl)azetidine-3-carboxamido)piperidin-1-yl)-3-((4-(methylsulfonyl)phenyl)amino)pyrazine-2-carboxamide]
7.5 to 50	CS(=O)(=O)c1ccc(Nc2nc(N3CCC[C@@H](NC(=O)N4CCC5(CCN(c6ccc7c(c6)C(=O)N(C6CCC(=O)NC6=O)C7=O)CC5)C4)C3)cnc2C(N)=O)cc1 (stereo partly drawn) [Compound 10, N—((R)-1-(5-carbamoyl-6-((4-(methylsulfonyl)phenyl)amino)pyrazine-2-yl)piperidin-3-yl)-8-(2-(2,6-dioxopiperidin-3-yl)-1,3-dioxoisoindolin-5-yl)-2,8-diazaspiro[4.5]decane-2-carboxamide]
< 7.5	Cn1cc(Nc2nc(N3CCC[C@@H](NC(=O)C4CCN(CC5CN(c6ccc7c(c6)C(=O)N(C6CCC(=O)NC6=O)C7=O)C5)CC4)C3)cnc2C(N)=O)cn1 (stereo partly drawn) [Compound 19, 5-[(3R)-3-[1-({1-[2-(2,6-dioxopiperidin-3-yl)-1,3-dioxoisoindol-5-yl]azetidin-3-yl}methyl)piperidine-4-amido]piperidin-1-yl]-3-[(1-methylpyrazol-4-yl)amino]pyrazine-2-carboxamide]
< 7.5	Cc1cc(Nc2nc(N3CCC[C@@H](NC(=O)C4CCN(CC5CN(c6ccc7c(c6)C(=O)N(C6CCC(=O)NC6=O)C7=O)C5)C4)C3)cnc2C(N)=O)sn1 (stereo partly drawn) [Compound 16, 5-[(3R)-3-[1-({1-[2-(2,6-dioxopiperidin-3-yl)-1,3-dioxoisoindol-5-yl]azetidin-3-yl}methyl)pyrrolidine-3-amido]piperidin-1-yl]-3-[(3-methyl-1,2-thiazol-5-yl)amino]pyrazine-2-carboxamide]
< 7.5	Cc1cc(Nc2nc(N3CCC[C@@H](NC(=O)C4CCN(CC5CCN(c6ccc7c(c6)C(=O)N(C6CCC(=O)NC6=O)C7=O)CC5)C4)C3)cnc2C(N)=O)sn1 (stereo partly drawn) [Compound 15, 5-[(3R)-3-[1-({1-[2-(2,6-dioxopiperidin-3-yl)-1,3-dioxoisoindol-5-yl]piperidin-4-yl}methyl)pyrrolidine-3-amido]piperidin-1-yl]-3-[(3-methyl-1,2-thiazol-5-yl)amino]pyrazine-2-carboxamide]
< 7.5	Cc1cc(Nc2nc(N3CCC[C@@H](NC(=O)N4CCN(CC5CCN(c6ccc7c(c6)C(=O)N(C6CCC(=O)NC6=O)C7=O)CC5)CC4)C3)cnc2C(N)=O)sn1 (stereo partly drawn) [Compound 23, 5-[(3R)-3-[4-({1-[2-(2,6-dioxopiperidin-3-yl)-1,3-dioxoisoindol-5-yl]piperidin-4-yl}methyl)piperazine-1-carbonylamino]piperidin-1-yl]-3-[(3-methyl-1,2-thiazol-5-yl)amino]pyrazine-2-carboxamide]
7.5 to 50	CS(=O)(=O)c1ccc(Nc2nc(N3CCC[C@@H](NC(=O)OCCCCCOc4ccc5c(c4)C(=O)N(C4CCC(=O)NC4=O)C5=O)C3)cnc2C(N)=O)cc1 (stereo partly drawn) [Compound 2, 5-((2-(2,6-dioxopiperidin-3-yl)-1,3-dioxoisoindolin-5-yl)oxy)pentyl ((R)-1-(5-carbamoyl-6-((4-(methylsulfonyl)phenyl)amino)pyrazin-2-yl)piperidin-3-yl)carbamate]
< 7.5	Cn1cc(Nc2nc(N3CCC[C@@H](NC(=O)C4CCN(CC5CCN(c6ccc7c(c6)C(=O)N(C6CCC(=O)NC6=O)C7=O)CC5)CC4)C3)cnc2C(N)=O)cn1 (stereo partly drawn) [Compound 21, 5-((3R)-3-(1-((1-(2-(2,6-dioxopiperidin-3-yl)-1,3-dioxoisoindolin-5-yl)piperidin-4-yl)methyl)piperidine-4-carboxamido)piperidin-1-yl)-3-((1-methyl-1H-pyrazol-4-yl)amino)pyrazine-2-carboxamide]
7.5 to 50	CS(=O)(=O)c1ccc(Nc2nc(N3CCC[C@@H](NC(=O)N4CCC5(CC4)CN(c4ccc6c(c4)C(=O)N(C4CCC(=O)NC4=O)C6=O)C5)C3)cnc2C(N)=O)cc1 (stereo partly drawn) [Compound 28, N—((R)-1-(5-carbamoyl-6-((4-(methylsulfonyl)phenyl)amino)pyrazine-2-yl)piperidin-3-yl)-2-(2-(2,6-dioxopiperidin-3-yl)-1,3-dioxoisoindolin-5-yl)-2,7-diazaspiro[3.5]nonane-7-carboxamide]
50 to 500	CS(=O)(=O)c1ccc(Nc2nc(N3CCC[C@@H](NC(=O)OC[C@@H]4CCN(c5ccc6c(c5)C(=O)N(C5CCC(=O)NC5=O)C6=O)C4)C3)cnc2C(N)=O)cc1 (stereo partly drawn) [Compound 9, ((3R)-1-(2-(2,6-dioxopiperidin-3-yl)-1,3-dioxoisoindolin-5-yl)pyrrolidin-3-yl)methyl ((R)-1-(5-carbamoyl-6-((4-(methylsulfonyl)phenyl)amino)pyrazin-2-yl)piperidin-3-yl)carbamate]
< 7.5	CS(=O)(=O)c1ccc(Nc2nc(N3CCC[C@@H](NC(=O)[C@H]4[C@@H]5CN(CC6CCN(c7ccc8c(c7)C(=O)N(C7CCC(=O)NC7=O)C8=O)CC6)C[C@@H]54)C3)cnc2C(N)=O)cc1 (stereo partly drawn) [Compound 33, (1R,5S,6r)-N—((R)-1-(5-carbamoyl-6-((4-(methylsulfonyl)phenyl)amino)pyrazin-2-yl)piperidin-3-yl)-3-((1-(2-(2,6-dioxopiperidin-3-yl)-1,3-dioxoisoindolin-5-yl)piperidin-4-yl)methyl)-3-azabicyclo[3.1.0]hexane-6-carboxamide]
< 7.5	CS(=O)(=O)c1ccc(Nc2nc(N3CCC[C@@H](NC(=O)N4CCC5(CCN(Cc6ccc7c(c6)C(=O)N(C6CCC(=O)NC6=O)C7=O)C5)CC4)C3)cnc2C(N)=O)cc1 (stereo partly drawn) [Compound 13, N-[(3R)-1-{5-carbamoyl-6-[(4-methanesulfonylphenyl)amino]pyrazin-2-yl}piperidin-3-yl]-2-{[2-(2,6-dioxopiperidin-3-yl)-1,3-dioxoisoindol-5-yl]methyl}-2,8-diazaspiro[4.5]decane-8-carboxamide]
< 7.5	CS(=O)(=O)c1ccc(Nc2nc(N3CCC[C@@H](NC(=O)N4CCC5(CC4)CCN(c4ccc6c(c4)C(=O)N(C4CCC(=O)NC4=O)C6=O)CC5)C3)cnc2C(N)=O)cc1 (stereo partly drawn) [Compound 11, N-[(3R)-1-{5-carbamoyl-6-[(4-methanesulfonylphenyl)amino]pyrazin-2-yl}piperidin-3-yl]-9-[2-(2,6-dioxopiperidin-3-yl)-1,3-dioxoisoindol-5-yl]-3,9-diazaspiro[5.5]undecane-3-carboxamide]
7.5 to 50	CS(=O)(=O)c1ccc(Nc2nc(N3CCC[C@@H](NC(=O)N4CC5(C4)CN(c4ccc6c(c4)C(=O)N(C4CCC(=O)NC4=O)C6=O)C5)C3)cnc2C(N)=O)cc1 (stereo partly drawn) [Compound 24, N-[(3R)-1-{5-carbamoyl-6-[(4-methanesulfonylphenyl)amino]pyrazine-2-yl}piperidin-3-yl]-6-[2-(2,6-dioxopiperidin-3-yl)-1,3-dioxoisoindol-5-yl]-2,6-diazaspiro[3.3]heptane-2-carboxamide]

Source: US12582722B2, “Bifunctional compounds for degrading BTK via ubiquitin proteosome pathway” (NURIX THERAPEUTICS, INC., priority 2019, dated 2026)
